These results are taken from patent US20260083851A1 (AVILAR THERAPEUTICS, INC., priority 2022, published 2026).

The experiment addresses T1, ASGP receptor (biotinylated ASGPR) (Homo sapiens, UniProt P07306).
T1 construct: biotin (biotinylated)
T1 sequence (P07306 1-291): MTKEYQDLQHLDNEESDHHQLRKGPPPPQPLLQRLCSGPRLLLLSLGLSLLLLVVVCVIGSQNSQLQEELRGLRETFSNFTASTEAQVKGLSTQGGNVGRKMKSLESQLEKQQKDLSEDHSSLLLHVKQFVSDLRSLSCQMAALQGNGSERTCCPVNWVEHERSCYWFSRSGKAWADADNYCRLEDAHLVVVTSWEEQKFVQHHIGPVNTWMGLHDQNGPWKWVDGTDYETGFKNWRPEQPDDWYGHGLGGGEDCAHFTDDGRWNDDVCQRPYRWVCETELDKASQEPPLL
In kind it is binding. As to conditions: SPR, Biacore 8K, 25° C.; Table 1C; read-out: ASGPR KD. Background: SPR reads the build-up and loss of mass on a sensor chip optically.

As to `O[C@@H]1[C@H](O)[C@@H](Oc2cccc(C(F)(F)F)n2)CO[C@@H]1c1cn(C2CCNCC2)nn1` [A224, (2R,3R,4S,5S)-2-(1-(piperidin-4-yl)-1H-1,2,3-triazol-4-yl)-5-((6-(trifluoromethyl)pyridin-2-yl)oxy)tetrahydro-2H-pyran-3,4-diol], the Kd was under 10 µM.

`O=C(O)c1ccc(-c2ccc(OC[C@H]3OC[C@H](Nc4cccc(C(F)(F)F)n4)[C@@H](O)[C@H]3O)cc2)cc1` [A225, 4′-(((2R,3R,4R,5S)-3,4-dihydroxy-5-((6-(trifluoromethyl)pyridin-2-yl)amino)tetrahydro-2H-pyran-2-yl)methoxy)-[1,1′-biphenyl]-4-carboxylic acid]: the Kd is under 10 µM.

For `O[C@@H]1[C@H](O)[C@@H](Nc2cccc(C(F)(F)F)n2)CO[C@@H]1COc1ncccn1` [A226, (2R,3R,4R,5S)-2-((pyrimidin-2-yloxy)methyl)-5-((6-(trifluoromethyl)pyridine-2-yl)amino)tetrahydro-2H-pyran-3,4-diol], the Kd is under 10 µM.

For `O[C@@H]1[C@H](O)[C@@H](Nc2cccc(C(F)(F)F)n2)CO[C@@H]1COc1cccnn1` [A227, (2R,3R,4R,5S)-2-((pyridazin-3-yloxy)methyl)-5-((6-(trifluoromethyl)pyridine-2-yl)amino)tetrahydro-2H-pyran-3,4-diol], the Kd was under 10 µM.

Regarding `O=C(O)c1ccc(-c2ccc(OC[C@H]3OC[C@H](Oc4cccc(C(F)(F)F)n4)[C@@H](O)[C@H]3O)cc2)cc1` [A228, 4′-(((2R,3R,4S,5S)-3,4-dihydroxy-5-((6-(trifluoromethyl)pyridin-2-yl)oxy)tetrahydro-2H-pyran-2-yl)methoxy)-[1,1′-biphenyl]-4-carboxylic acid], the Kd is under 10 µM.

In the case of `O[C@@H]1[C@H](O)[C@@H](Oc2cccc(C(F)(F)F)n2)CO[C@@H]1COc1cnccn1` [A229, (2R,3R,4S,5S)-2-((pyrazin-2-yloxy)methyl)-5-((6-(trifluoromethyl)pyridin-2-yl)oxy)tetrahydro-2H-pyran-3,4-diol], the Kd was under 10 µM.

Consider `CC(C)(C)OC(=O)N1CC2CN(C[C@H]3OC[C@H](Nc4cncc(C(F)(F)F)n4)[C@@H](O)[C@H]3O)CC21` (stereo partly drawn) [A230, tert-butyl 3-(((2R,3R,4R,5S)-3,4-dihydroxy-5-((6-(trifluoromethyl)pyrazin-2-yl)amino)tetrahydro-2H-pyran-2-yl)methyl)-3,6-diazabicyclo [3.2.0] heptane-6-carboxylate], for which the Kd is under 10 µM.

Regarding `O[C@@H]1[C@H](O)[C@@H](Nc2cncc(C(F)(F)F)n2)CO[C@@H]1CN1Cc2ccccc2C1` [A231, (2R,3R,4R,5S)-2-(isoindolin-2-ylmethyl)-5-((6-(trifluoromethyl)pyrazin-2-yl)amino)tetrahydro-2H-pyran-3,4-diol], the Kd was under 10 µM.

With `O[C@@H]1[C@H](O)[C@@H](Nc2cncc(C(F)(F)F)n2)CO[C@@H]1CN1CCc2ccccc2C1` [A232, (2R,3R,4R,5S)-2-((3,4-dihydroisoquinolin-2(1H)-yl)methyl)-5-((6-(trifluoromethyl)pyrazin-2-yl)amino)tetrahydro-2H-pyran-3,4-diol], the Kd is under 10 µM.

Regarding `O[C@@H]1[C@H](O)[C@@H](Oc2cccc(C(F)(F)F)n2)CO[C@@H]1CN1CCCCC1` [A233, (2R,3R,4S,5S)-2-(piperidin-1-ylmethyl)-5-((6-(trifluoromethyl)pyridin-2-yl)oxy)tetrahydro-2H-pyran-3,4-diol], the Kd was under 10 µM.

Regarding `O[C@@H]1[C@H](O)[C@@H](Oc2cccc(C(F)(F)F)n2)CO[C@@H]1COc1ccccc1` [A234, (2R,3R,4S,5S)-2-(phenoxymethyl)-5-((6-(trifluoromethyl)pyridin-2-yl)oxy)tetrahydro-2H-pyran-3,4-diol], the Kd was under 10 µM.

`O[C@@H]1[C@H](O)[C@@H](Oc2cccc(C(F)(F)F)n2)CO[C@@H]1COc1ncccn1` [A235, (2R,3R,4S,5S)-2-((pyrimidin-2-yloxy)methyl)-5-((6-(trifluoromethyl)pyridin-2-yl)oxy)tetrahydro-2H-pyran-3,4-diol]: the Kd was under 10 µM.

Turning to `O[C@@H]1[C@H](O)[C@@H](Nc2cccc(C(F)(F)F)n2)CO[C@@H]1COc1ccc(Br)cc1` [A236, (2R,3R,4R,5S)-2-((4-bromophenoxy)methyl)-5-((6-(trifluoromethyl)pyridin-2-yl)amino)tetrahydro-2H-pyran-3,4-diol], the Kd was under 10 µM.

For `OC[C@H]1O[C@H](Oc2ccc(N3CCNCC3)cc2)[C@H](Oc2cccc(C(F)(F)F)n2)[C@@H](O)[C@H]1O` [A237], the Kd is under 10 µM.

For the molecule `O[C@@H]1[C@H](O)[C@@H](Oc2cccc(C(F)(F)F)n2)CO[C@@H]1COc1ccc(Br)cc1` [A238], the dissociation constant (Kd) was under 10 µM.

Turning to `O[C@@H]1[C@H](O)[C@@H](Nc2cccc(C(F)(F)F)n2)CO[C@@H]1COc1cnccn1` [A239], the Kd is under 10 µM.

Take `O[C@@H]1[C@H](O)[C@@H](Nc2cccc(C(F)(F)F)n2)CO[C@@H]1CN1CCCC1` [A240]: the Kd was under 10 µM.

As for `O[C@@H]1[C@H](O)[C@@H](Nc2cccc(C(F)(F)F)n2)CO[C@@H]1CN1CCCCC1` [A241], the Kd was under 10 µM.

In the case of `O[C@@H]1[C@H](O)[C@@H](Oc2cccc(C(F)(F)F)n2)CO[C@@H]1CN1CCN(c2ccccc2)CC1` [A242], the Kd was under 10 µM.

`O[C@@H]1[C@H](O)[C@@H](Nc2cccc(C(F)(F)F)n2)CO[C@@H]1COc1ccccc1` [A243]: the Kd is under 10 µM.

As to `O=C(O)c1cnc(OC[C@H]2OC[C@H](Oc3cccc(C(F)(F)F)n3)[C@@H](O)[C@H]2O)cn1` [A244], the Kd was under 10 µM.

For the molecule `O[C@@H]1[C@H](O)[C@@H](Oc2cccc(C(F)(F)F)n2)CO[C@@H]1CN1CCC1` [A245], the Kd is under 10 µM.

For `O=C(O)c1ccc(OC[C@H]2OC[C@H](Oc3cccc(C(F)(F)F)n3)[C@@H](O)[C@H]2O)nn1` [A246], the Kd was under 10 µM.

Regarding `O[C@@H]1[C@H](O)[C@@H](Oc2cccc(C(F)(F)F)n2)CO[C@@H]1COc1ccc(N2CCNCC2)c(F)c1` [A247], the Kd is under 10 µM.

For the molecule `CN1CCN(C[C@H]2OC[C@H](Oc3cccc(C(F)(F)F)n3)[C@@H](O)[C@H]2O)CC1` [A249], the Kd was under 10 µM.

Turning to `OC[C@H]1O[C@H](c2ccc(N3CCNCC3)cc2)[C@H](Oc2cccc(C(F)(F)F)n2)[C@@H](O)[C@H]1O` [A250], the Kd was under 10 µM.

With `O=C(O)c1c(F)cc(CN2CCN(C[C@H]3OC[C@H](Nc4cncc(C(F)(F)F)n4)[C@@H](O)[C@H]3O)CC2)cc1F` [A251], the Kd is under 10 µM.

In the case of `C[C@H]1O[C@H](c2ccccc2)[C@H](Oc2cccc(C(F)(F)F)n2)[C@@H](O)[C@H]1O` [A252], the Kd is under 10 µM.

`O[C@@H]1[C@H](O)[C@@H](Oc2cccc(C(F)(F)F)n2)CO[C@@H]1CN1CCc2ccccc2C1` [A254]: the Kd was under 10 µM.

For `O=C(O)c1ccc(-c2ccc(OC[C@H]3OC[C@H](Oc4cccc(C(F)(F)F)n4)[C@@H](O)[C@H]3O)nn2)cc1` [A255], the Kd is under 10 µM.

On to `CC(C)(C)OC(=O)N1CC(Cc2ccc(OC[C@H]3OC[C@H](Oc4cccc(C(F)(F)F)n4)[C@@H](O)[C@H]3O)nn2)C1` [A256], for which the Kd was under 10 µM.

As for `O[C@@H]1[C@H](O)[C@@H](Oc2cccc(C(F)(F)F)n2)CO[C@@H]1CN1CCN(c2ccc(Br)nn2)CC1` [A257], the Kd is under 10 µM.

On to `O=C1CCCN1C[C@H]1OC[C@H](Oc2cccc(C(F)(F)F)n2)[C@@H](O)[C@H]1O` [A258], for which the Kd is under 10 µM.

As to `O[C@@H]1[C@H](O)[C@@H](Oc2cccc(C(F)(F)F)n2)CO[C@@H]1CN1CCN(c2ccccn2)CC1` [A259], the Kd was under 10 µM.

With `CC(C)(C)OC(=O)N1CC2CN(C[C@H]3OC[C@H](Oc4cccc(C(F)(F)F)n4)[C@@H](O)[C@H]3O)CC21` (stereo partly drawn) [A261], the dissociation constant Kd is under 10 µM.

Take `CC(C)(C)OC(=O)N1CC2CN(C[C@H]3OC[C@H](Oc4cccc(C(F)(F)F)n4)[C@@H](O)[C@H]3O)CC2C1` (stereo partly drawn) [A262]: the Kd was under 10 µM.

Regarding `O=C1c2ncccc2CN1C[C@H]1OC[C@H](Oc2cccc(C(F)(F)F)n2)[C@@H](O)[C@H]1O` [A263], the Kd was under 10 µM.

Consider `O[C@@H]1[C@H](O)[C@@H](Oc2cccc(C(F)(F)F)n2)CO[C@@H]1CN1CCN(c2cccnn2)CC1` [A264], for which the Kd is under 10 µM.

As to `O=C1c2ccccc2CN1C[C@H]1OC[C@H](Oc2cccc(C(F)(F)F)n2)[C@@H](O)[C@H]1O` [A265], the Kd is under 10 µM.

Regarding `CC(C)(C)OC(=O)N1CCC2(CC1)CN(C[C@H]1OC[C@H](Oc3cccc(C(F)(F)F)n3)[C@@H](O)[C@H]1O)C2` [A267], the Kd was under 10 µM.

On to `O[C@@H]1[C@H](O)[C@@H](Nc2cccc(C(F)(F)F)n2)CO[C@@H]1CN1CCc2ccccc2C1` [A268], for which the Kd is under 10 µM.

In the case of `O[C@@H]1[C@@H](Nc2cncc(C(F)(F)F)n2)[C@H]2OC[C@](COc3cnccn3)(O2)[C@@H]1O` [A269], the Kd was under 10 µM.

As for `O[C@@H]1[C@H](O)[C@@H](Oc2cccc(C(F)(F)F)n2)CO[C@@H]1CN1CCN(c2ncccn2)CC1` [A270], the Kd is under 10 µM.

Regarding `CC(C)(C)OC(=O)N1CCC2CN(C[C@H]3OC[C@H](Oc4cccc(C(F)(F)F)n4)[C@@H](O)[C@H]3O)CC2C1` (stereo partly drawn) [A271], the dissociation constant Kd is under 10 µM.

On to `O=C1c2c(F)cccc2CN1C[C@H]1OC[C@H](Oc2cccc(C(F)(F)F)n2)[C@@H](O)[C@H]1O` [A272], for which the Kd is under 10 µM.

For `O=C1c2ccc(F)cc2CN1C[C@H]1OC[C@H](Oc2cccc(C(F)(F)F)n2)[C@@H](O)[C@H]1O` [A273], the Kd was under 10 µM.

As for `O[C@@H]1[C@H](O)[C@@H](Oc2cccc(C(F)(F)F)n2)CO[C@@H]1CN1Cc2ccccc2C1` [A274], the Kd was under 10 µM.

As for `O[C@@H]1[C@H](O)[C@@H](Oc2cccc(C(F)(F)F)n2)CO[C@@H]1CN1CCN(c2cccnc2)CC1` [A275], the Kd was under 10 µM.

A word on the Kd: it is the constant that tells how readily two partners part at equilibrium.
